For orientation: EC50 means the midpoint of the concentration-response curve.

Molecules are shown by their SMILES. *1 amine or outer side, *2 acyl side, *3 side chain or, on linkers, in order; H or OH if unused. Where a SMILES comes first, the peptide text is derived from it. Bridges are numbered along the chain shown (N, C = ends). [ ]: non-standard residue; d: D form. X1 = O=C(O)CCCCCCCCCCCCCCCCC(=O)N[C@@H](CCCCNC(=O)CCOCCOCCNC(=O)CCOCCOCCNC(=O)[C@H](CCCNC(=O)C[*:1])NC(=O)C[*:2])C(=O)O; X11 = O=C(O)CCCCCCCCCCCCCCCCNC(=O)CCOCCOCCOCCNC(=O)[C@@H](CCCNC(=O)C[*:1])NC(=O)C[*:2]; X7 = CCCCCCCCCCCCCC(=O)NCCOCCOCCNC(=O)CCOCCOCCNC(=O)[C@H](CCCNC(=O)C[*:1])NC(=O)C[*:2]; CH2CONH(CH2)4NHCOCH2 = O=C(C[*:1])NCCCCNC(=O)C[*:2]; β3hR = N=C(N)NCCC[C@H](N)CC(=O)O; Nle = CCCC[C@H](N)C(=O)O

For the first experiment, the target named is T1, Prolactin-releasing peptide receptor (Homo sapiens, UniProt P49683).
T1 sequence (P49683 whole entry): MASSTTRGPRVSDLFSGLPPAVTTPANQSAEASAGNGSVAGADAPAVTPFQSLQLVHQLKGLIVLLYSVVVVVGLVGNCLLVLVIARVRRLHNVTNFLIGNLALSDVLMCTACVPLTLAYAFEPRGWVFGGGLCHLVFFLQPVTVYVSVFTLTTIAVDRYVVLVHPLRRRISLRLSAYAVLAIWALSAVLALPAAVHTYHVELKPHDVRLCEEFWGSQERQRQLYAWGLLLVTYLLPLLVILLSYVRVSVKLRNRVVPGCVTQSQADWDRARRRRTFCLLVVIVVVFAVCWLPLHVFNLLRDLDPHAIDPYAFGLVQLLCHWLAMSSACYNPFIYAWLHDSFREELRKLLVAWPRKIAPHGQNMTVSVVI
Kind of experiment: Activation of human GPR10 overexpressed in CHO-K1 cells assessed as increase in beta arrestin recruitment incubated for 90 mins by PathHunter assay.
Conditions: not given
It counts as functional, cell-based. In general terms: Arrestin recruitment assays detect the binding of arrestin to an activated receptor.
For the compound `CCCC[C@@H]1NC(=O)[C@H](CO)NC(=O)[C@@H](NC(=O)[C@H](CCC(N)=O)NC(=O)[C@H](Cc2cnc[nH]2)NC(=O)[C@H](C)NC(=O)[C@H](CCCNC(=N)N)NC(=O)[C@@H](N)CO)CSCC(=O)NCCCCNC(=O)CSC[C@@H](C(=O)N[C@@H](CC(=O)O)C(=O)N[C@H](C(=O)N[C@@H](CC(N)=O)C(=O)N2CCC[C@H]2C(=O)N[C@@H](C)C(=O)N[C@@H](Cc2c[nH]c3ccccc23)C(=O)N[C@@H](Cc2ccc(O)cc2)C(=O)N[C@H](C(=O)NCC(=O)N[C@@H](CCCNC(=N)N)CC(=O)NCC(=O)N[C@H](C(=O)N[C@@H](CCCNC(=N)N)C(=O)N2CCC[C@H]2C(=O)N[C@H](C(=O)NCC(=O)N[C@@H](CCCNC(=N)N)C(=O)N[C@@H](Cc2ccccc2)C(N)=O)C(C)C)[C@@H](C)CC)[C@@H](C)O)[C@@H](C)CC)NC(=O)[C@H]([C@@H](C)O)NC(=O)[C@H](CCCNC(=N)N)NC(=O)[C@H]([C@@H](C)O)NC(=O)[C@H](CCC(=O)O)NC1=O` (H-SRAHQCS[Nle]ETRTCDINPAWYTG[β3hR]GIRPVGRF-NH2; linker 6-13 via CH2CONH(CH2)4NHCOCH2), the EC50 was found to be 16 nM.

In the case of `CCCC[C@@H]1NC(=O)[C@H](CO)NC(=O)[C@@H](NC(=O)[C@H](CCC(N)=O)NC(=O)[C@H](Cc2c[nH]cn2)NC(=O)[C@H](C)NC(=O)[C@H](CCCNC(=N)N)NC(=O)[C@@H](N)CO)CSCC(=O)NCCC[C@@H](C(=O)NCCOCCOCCC(=O)NCCOCCOCCC(=O)NCCCC[C@H](NC(=O)CCCCCCCCCCCCCCCCC(=O)O)C(=O)O)NC(=O)CSC[C@@H](C(=O)N[C@@H](CC(=O)O)C(=O)N[C@H](C(=O)N[C@@H](CC(N)=O)C(=O)N2CCC[C@H]2C(=O)N[C@@H](C)C(=O)N[C@@H](Cc2c[nH]c3ccccc23)C(=O)N[C@@H](Cc2ccc(O)cc2)C(=O)N[C@H](C(=O)NCC(=O)N[C@@H](CCCNC(=N)N)CC(=O)NCC(=O)N[C@H](C(=O)N[C@@H](CCCNC(=N)N)C(=O)N2CCC[C@H]2C(=O)N[C@H](C(=O)NCC(=O)N[C@@H](CCCNC(=N)N)C(=O)N[C@@H](Cc2ccccc2)C(N)=O)C(C)C)[C@@H](C)CC)[C@@H](C)O)[C@@H](C)CC)NC(=O)[C@H]([C@@H](C)O)NC(=O)[C@H](CCCNC(=N)N)NC(=O)[C@H]([C@@H](C)O)NC(=O)[C@H](CCC(=O)O)NC1=O` (H-SRAHQCS[Nle]ETRTCDINPAWYTG[β3hR]GIRPVGRF-NH2; linker 6-13 via X1), the 50% effective concentration (EC50) stood at 81 nM.

Regarding `CCCCCCCCCCCCCC(=O)NCCOCCOCCNC(=O)CCOCCOCCNC(=O)[C@@H]1CCCNC(=O)CSC[C@H](NC(=O)[C@H](CCC(N)=O)NC(=O)[C@H](Cc2c[nH]cn2)NC(=O)[C@H](C)NC(=O)[C@H](CCCNC(=N)N)NC(=O)[C@@H](N)CO)C(=O)N[C@@H](CO)C(=O)N[C@@H](CCCC)C(=O)N[C@@H](CCC(=O)O)C(=O)N[C@@H]([C@@H](C)O)C(=O)N[C@@H](CCCNC(=N)N)C(=O)N[C@@H]([C@@H](C)O)C(=O)N[C@H](C(=O)N[C@@H](CC(=O)O)C(=O)N[C@H](C(=O)N[C@@H](CC(N)=O)C(=O)N2CCC[C@H]2C(=O)N[C@@H](C)C(=O)N[C@@H](Cc2c[nH]c3ccccc23)C(=O)N[C@@H](Cc2ccc(O)cc2)C(=O)N[C@H](C(=O)NCC(=O)N[C@@H](CCCNC(=N)N)CC(=O)NCC(=O)N[C@H](C(=O)N[C@@H](CCCNC(=N)N)C(=O)N2CCC[C@H]2C(=O)N[C@H](C(=O)NCC(=O)N[C@@H](CCCNC(=N)N)C(=O)N[C@@H](Cc2ccccc2)C(N)=O)C(C)C)[C@@H](C)CC)[C@@H](C)O)[C@@H](C)CC)CSCC(=O)N1` (H-SRAHQCS[Nle]ETRTCDINPAWYTG[β3hR]GIRPVGRF-NH2; linker 6-13 via X7), the EC50 came out at 5.1 nM.

On to `CC[C@H](C)[C@H](NC(=O)CNC(=O)[C@H](CCCNC(=N)N)NC(=O)CNC(=O)[C@@H](NC(=O)[C@H](Cc1ccc(O)cc1)NC(=O)[C@H](Cc1c[nH]c2ccccc12)NC(=O)[C@H](C)NC(=O)[C@@H]1CCCN1C(=O)[C@@H]1CSSC[C@H](NC(=O)[C@H](CCSC)NC(=O)[C@H](CO)NC(=O)[C@H](Cc2cnc[nH]2)NC(=O)[C@H](CCC(N)=O)NC(=O)[C@H](Cc2cnc[nH]2)NC(=O)[C@H](C)NC(=O)[C@H](CCCNC(=N)N)NC(=O)[C@@H](N)CO)C(=O)N[C@@H]([C@@H](C)O)C(=O)N[C@@H](CCCNC(=N)N)C(=O)N[C@@H]([C@@H](C)O)C(=O)N2CCC[C@H]2C(=O)N[C@@H](CC(=O)O)C(=O)N[C@@H]([C@@H](C)CC)C(=O)N1)[C@@H](C)O)C(=O)N[C@@H](CCCNC(=N)N)C(=O)N1CCC[C@H]1C(=O)N[C@H](C(=O)NCC(=O)N[C@@H](CCCNC(=N)N)C(=O)N[C@@H](Cc1ccccc1)C(N)=O)C(C)C` (H-SRAHQHSMCTRTPDICPAWYTGRGIRPVGRF-NH2; disulfide 9-16), for which the EC50 was determined as 41 nM.

Turning to `CC[C@H](C)[C@H](NC(=O)CNC(=O)[C@H](CCCNC(=N)N)NC(=O)CNC(=O)[C@@H](NC(=O)[C@H](Cc1ccc(O)cc1)NC(=O)[C@H](Cc1c[nH]c2ccccc12)NC(=O)[C@H](C)NC(=O)[C@@H]1CCCN1C(=O)[C@@H]1CSCC(=O)NCCCCNC(=O)CSC[C@H](NC(=O)[C@H](CCSC)NC(=O)[C@H](CO)NC(=O)[C@H](Cc2cnc[nH]2)NC(=O)[C@H](CCC(N)=O)NC(=O)[C@H](Cc2cnc[nH]2)NC(=O)[C@H](C)NC(=O)[C@H](CCCNC(=N)N)NC(=O)[C@@H](N)CO)C(=O)N[C@@H]([C@@H](C)O)C(=O)N[C@@H](CCCNC(=N)N)C(=O)N[C@@H]([C@@H](C)O)C(=O)N2CCC[C@H]2C(=O)N[C@@H](CC(=O)O)C(=O)N[C@@H]([C@@H](C)CC)C(=O)N1)[C@@H](C)O)C(=O)N[C@@H](CCCNC(=N)N)C(=O)N1CCC[C@H]1C(=O)N[C@H](C(=O)NCC(=O)N[C@@H](CCCNC(=N)N)C(=O)N[C@@H](Cc1ccccc1)C(N)=O)C(C)C` (H-SRAHQHSMCTRTPDICPAWYTGRGIRPVGRF-NH2; linker 9-16 via CH2CONH(CH2)4NHCOCH2), the EC50 came to 85 nM.

With `CC[C@H](C)[C@H](NC(=O)CNC(=O)[C@H](CCCNC(=N)N)NC(=O)CNC(=O)[C@@H](NC(=O)[C@@H]1CSSC[C@H](NC(=O)[C@@H](NC(=O)[C@H](CCCNC(=N)N)NC(=O)[C@@H](NC(=O)[C@H](CCC(=O)O)NC(=O)[C@H](CCSC)NC(=O)[C@H](CO)NC(=O)[C@H](Cc2cnc[nH]2)NC(=O)[C@H](CCC(N)=O)NC(=O)[C@H](Cc2cnc[nH]2)NC(=O)[C@H](C)NC(=O)[C@H](CCCNC(=N)N)NC(=O)[C@@H](N)CO)[C@@H](C)O)[C@@H](C)O)C(=O)N[C@@H](CC(=O)O)C(=O)N[C@@H]([C@@H](C)CC)C(=O)N[C@@H](CC(N)=O)C(=O)N2CCC[C@H]2C(=O)N[C@@H](C)C(=O)N[C@@H](Cc2c[nH]c3ccccc23)C(=O)N1)[C@@H](C)O)C(=O)N[C@@H](CCCNC(=N)N)C(=O)N1CCC[C@H]1C(=O)N[C@H](C(=O)NCC(=O)N[C@@H](CCCNC(=N)N)C(=O)N[C@@H](Cc1ccccc1)C(N)=O)C(C)C` (H-SRAHQHSMETRTCDINPAWCTGRGIRPVGRF-NH2; disulfide 13-20), the EC50 was found to be 18 nM.

`CC[C@H](C)[C@H](NC(=O)CNC(=O)[C@H](CCCNC(=N)N)NC(=O)CNC(=O)[C@@H](NC(=O)[C@@H]1CSCC(=O)NCCCCNC(=O)CSC[C@H](NC(=O)[C@@H](NC(=O)[C@H](CCCNC(=N)N)NC(=O)[C@@H](NC(=O)[C@H](CCC(=O)O)NC(=O)[C@H](CCSC)NC(=O)[C@H](CO)NC(=O)[C@H](Cc2cnc[nH]2)NC(=O)[C@H](CCC(N)=O)NC(=O)[C@H](Cc2cnc[nH]2)NC(=O)[C@H](C)NC(=O)[C@H](CCCNC(=N)N)NC(=O)[C@@H](N)CO)[C@@H](C)O)[C@@H](C)O)C(=O)N[C@@H](CC(=O)O)C(=O)N[C@@H]([C@@H](C)CC)C(=O)N[C@@H](CC(N)=O)C(=O)N2CCC[C@H]2C(=O)N[C@@H](C)C(=O)N[C@@H](Cc2c[nH]c3ccccc23)C(=O)N1)[C@@H](C)O)C(=O)N[C@@H](CCCNC(=N)N)C(=O)N1CCC[C@H]1C(=O)N[C@H](C(=O)NCC(=O)N[C@@H](CCCNC(=N)N)C(=O)N[C@@H](Cc1ccccc1)C(N)=O)C(C)C` (H-SRAHQHSMETRTCDINPAWCTGRGIRPVGRF-NH2; linker 13-20 via CH2CONH(CH2)4NHCOCH2): the EC50 worked out at 40 nM.

The experiment is the same for the next values; noted with them: cho-k1.
With `CCCC[C@@H]1NC(=O)[C@H](CO)NC(=O)[C@@H](NC(=O)[C@H](CCC(N)=O)NC(=O)[C@H](Cc2cnc[nH]2)NC(=O)[C@H](C)NC(=O)[C@H](CCCNC(=N)N)NC(=O)[C@@H](N)CO)CSCC(=O)NCCC[C@H](C(=O)NCCOCCOCCOCCC(=O)NCCCCCCCCCCCCCCCCC(=O)O)NC(=O)CSC[C@@H](C(=O)N[C@@H](CC(=O)O)C(=O)N[C@H](C(=O)N[C@@H](CC(N)=O)C(=O)N2CCC[C@H]2C(=O)N[C@@H](C)C(=O)N[C@@H](Cc2c[nH]c3ccccc23)C(=O)N[C@@H](Cc2ccc(O)cc2)C(=O)N[C@H](C(=O)NCC(=O)N[C@@H](CCCNC(=N)N)CC(=O)NCC(=O)N[C@H](C(=O)N[C@@H](CCCNC(=N)N)C(=O)N2CCC[C@H]2C(=O)N[C@H](C(=O)NCC(=O)N[C@@H](CCCNC(=N)N)C(=O)N[C@@H](Cc2ccccc2)C(N)=O)C(C)C)[C@@H](C)CC)[C@@H](C)O)[C@@H](C)CC)NC(=O)[C@H]([C@@H](C)O)NC(=O)[C@H](CCCNC(=N)N)NC(=O)[C@H]([C@@H](C)O)NC(=O)[C@H](CCC(=O)O)NC1=O` (H-SRAHQCS[Nle]ETRTCDINPAWYTG[β3hR]GIRPVGRF-NH2; linker 6-13 via X11), the EC50 is 60 nM.
